“And” between values parts separate entries of the source, which are not always exact repeats. Equal values may be shown once. Read-outs that look alike come from different tables or passages of the source.
Columns and labels:
PfENT1WT = molecular target: T1, PfENT1WT (Plasmodium falciparum, UniProt Q8IDM6); test: biochemical; format: binding
T1 construct: 10xHis (N); made in house; host or cells: Sf9 insect cells (baculovirus)
Description: (§1) For the in vitro binding assay, Sf9 cells were solubilized in lysis buffer containing 2% (w/v) n-dodecyl-β-D-maltopyranoside (DDM, Anatrace) and protease inhibitor cocktail (0.8 μM aprotinin, 2 μM pepstatin, and 5 μg/ml leupeptin) at 4 °C for 2 h. The soluble supernatant was collected via centrifugation and incubated with Ni-NTA resin (QIAGEN) at 4 °C for 1 h. The resin was washed and eluted using lysis buffer containing 0.05% (w/v) DDM and 30 mM/300 mM imidazole. The protein was further purified by size-exclusion chromatography (Superdex 200 Increase 10/300; GE Healthcare) in buffer containing 25 mM MES (pH 6.0), 150 mM NaCl, and 0.05% (w/v) DDM. The peak fractions were pooled and concentrated to 10~50 μM for the nucleoside-binding assay.
(§2) The binding affinity between wild-type and mutant PfENT1 with nucleosides and GSK4 was measured using a Micro-Cal ITC200 (Malvern). All proteins were prepared in 25 mM MES (pH 6.0), 150 mM NaCl, and 0.05% (w/v) DDM. Nucleosides (5~10 mM) and GSK4 (100-200 μM) dissolved in the same buffer were titrated against 20–50 μM PfENT1 proteins at 25 °C. PEAQ-ITC analysis software (MicroCal) was employed to analyze the data. All titrations were repeated three times.

PfENT1 mutant S49A = molecular target: T2, PfENT1 mutant S49A (Plasmodium falciparum, UniProt Q8IDM6, S49A); test: ITC binding to PfENT1 mutant S49A; details: Fig. 3c
T2 construct: 10xHis (N); made in house; host or cells: Sf9 insect cells (baculovirus)
T2 sequence (Q8IDM6 1-422 S49A): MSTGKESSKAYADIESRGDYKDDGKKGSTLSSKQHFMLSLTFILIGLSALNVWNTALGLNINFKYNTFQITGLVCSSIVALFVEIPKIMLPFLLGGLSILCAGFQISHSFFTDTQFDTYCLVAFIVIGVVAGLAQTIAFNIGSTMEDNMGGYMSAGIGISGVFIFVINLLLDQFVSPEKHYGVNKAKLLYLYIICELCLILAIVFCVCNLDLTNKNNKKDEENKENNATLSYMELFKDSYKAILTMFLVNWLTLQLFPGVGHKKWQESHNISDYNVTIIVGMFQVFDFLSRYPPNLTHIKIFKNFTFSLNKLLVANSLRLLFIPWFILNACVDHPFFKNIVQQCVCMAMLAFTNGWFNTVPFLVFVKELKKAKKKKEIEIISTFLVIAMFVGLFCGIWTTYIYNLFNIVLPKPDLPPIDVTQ
Description: as §1, §2

PfENT1 Q135A = molecular target: T3, PfENT1 Q135A (Plasmodium falciparum, UniProt Q8IDM6, Q135A); test: Inosine uptake assay, yeast expressing PfENT1 Q135A; format: cell-based; details: Fig. 3d, construct Q135A
T3 construct: expressed in transfected cells; host or cells: S. cerevisiae BY4741, FUI1 deleted, PfENT1 mutant knock-in under the TEF1 promoter
From the text: (§3) Codon-optimized PfENT1 (for expression in yeast) was synthesized by Sangon Biotech. The carboxyl terminus of PfENT1 was HA-tagged through PCR. The TEF1p promoter and PGK1t terminator were amplified from BY4741 genomic DNA. Overlap PCR was applied to generate the gene overexpression cassette of PfENT1 (TEF1p promoter-PfENT1-PGK1t terminator). The two 600-bp homologous arms corresponding to the upstream and downstream regions of the FUI1 gene were amplified from BY4741 genomic DNA. The gene cassette of the ‘TEF1p promoter-PfENT1-PGK1t terminator’ together with the two homologous arms was cloned into the PUC19 plasmid through Gibson assembly, generating the final plasmid PUC19: PfENT1. PfENT1 mutations were generated using point mutation and verified by Sanger sequencing. The spacer targeting the FUI1 gene (5ʹ-[…]-3ʹ) was cloned into the pCas-BsaI plasmid to generate the pCas-FUI1 plasmid as described previously. […]
(§4) Cells were grown overnight in YPD medium to mid-log phase and harvested by centrifugation at 3000 × g for 5 min. […] After washing by vacuum filtration with 2 ml ice-cold 2% glucose, the radioactivity retained on the filter was incubated with 1 mL of ULTIMA GOLD scintillation fluid (Perkin Elmer, 77-15311). Counts were measured using a liquid scintillation analyzer (Perkin Elmer, Tri-Carb 5110TR). […]

PfENT1 D287A = molecular target: T4, PfENT1 D287A (Plasmodium falciparum, UniProt Q8IDM6, D287A); test: Inosine uptake assay, yeast expressing PfENT1 D287A; format: cell-based; details: Fig. 3d, construct D287A
T4 construct: expressed in transfected cells; host or cells: S. cerevisiae BY4741, FUI1 deleted, PfENT1 mutant knock-in under the TEF1 promoter
From the text: as §3, §4

T1 sequence (Q8IDM6 whole entry): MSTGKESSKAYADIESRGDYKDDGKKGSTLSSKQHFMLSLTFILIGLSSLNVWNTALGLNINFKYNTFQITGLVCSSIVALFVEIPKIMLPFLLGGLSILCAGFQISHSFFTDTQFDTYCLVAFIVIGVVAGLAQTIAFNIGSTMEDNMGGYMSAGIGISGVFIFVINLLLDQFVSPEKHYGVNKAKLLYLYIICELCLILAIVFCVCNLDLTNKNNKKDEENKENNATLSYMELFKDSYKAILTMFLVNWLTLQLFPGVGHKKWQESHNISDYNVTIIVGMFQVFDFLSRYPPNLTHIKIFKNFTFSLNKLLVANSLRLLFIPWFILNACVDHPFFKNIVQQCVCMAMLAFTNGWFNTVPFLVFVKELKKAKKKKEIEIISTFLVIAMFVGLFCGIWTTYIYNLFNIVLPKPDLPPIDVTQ
T3 sequence (Q8IDM6 whole entry Q135A): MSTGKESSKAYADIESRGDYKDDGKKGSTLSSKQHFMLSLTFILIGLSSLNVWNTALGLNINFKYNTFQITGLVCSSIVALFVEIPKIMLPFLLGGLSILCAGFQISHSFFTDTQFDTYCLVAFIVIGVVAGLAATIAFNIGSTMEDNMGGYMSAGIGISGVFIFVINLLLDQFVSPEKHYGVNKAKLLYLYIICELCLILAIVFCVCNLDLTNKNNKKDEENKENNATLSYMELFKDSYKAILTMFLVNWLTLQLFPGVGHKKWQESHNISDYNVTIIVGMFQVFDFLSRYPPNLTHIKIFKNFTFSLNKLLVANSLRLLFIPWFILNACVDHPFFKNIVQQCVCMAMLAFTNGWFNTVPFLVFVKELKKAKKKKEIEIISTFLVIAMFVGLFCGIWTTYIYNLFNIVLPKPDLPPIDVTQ
T4 sequence (Q8IDM6 whole entry D287A): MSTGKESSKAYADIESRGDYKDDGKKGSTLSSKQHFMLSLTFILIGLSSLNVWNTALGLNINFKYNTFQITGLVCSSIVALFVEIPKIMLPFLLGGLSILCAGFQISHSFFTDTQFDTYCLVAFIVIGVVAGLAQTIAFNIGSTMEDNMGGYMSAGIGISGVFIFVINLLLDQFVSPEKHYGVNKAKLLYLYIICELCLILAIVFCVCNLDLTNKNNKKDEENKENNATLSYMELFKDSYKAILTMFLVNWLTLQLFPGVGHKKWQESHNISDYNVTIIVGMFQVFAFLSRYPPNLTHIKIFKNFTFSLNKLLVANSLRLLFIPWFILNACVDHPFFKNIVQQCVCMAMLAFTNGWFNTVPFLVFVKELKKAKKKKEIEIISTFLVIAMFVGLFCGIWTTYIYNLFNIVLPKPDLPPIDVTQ

OC[C@H]1O[C@@H](n2cnc3c(O)ncnc32)[C@H](O)[C@@H]1O [Inosine, inosine]
Kd (PfENT1WT; Kd, Mean and Mean ± SD, source data Figure 1a): 64.7 µM | Kd (PfENT1WT; Kd, N=3 (individual experiments), source data Figure 1a): 52.3 µM and 64.2 µM and 77.7 µM | Kd (PfENT1WT; binding affinity (Kd), ITC, 25 °C, pH 6.0, mean ± SD (n = 3), Fig. 1a and text): 64.7 ± 12.7 µM | Kd (PfENT1WT; read-out: Kd, Mean and Mean ± SD, source data Figure 1a): 64.7 ± 12.7 µM | binding affinity (Kd) (PfENT1 mutant S49A): complete abolishment | Uptake of [3H]-inosine (Percentage of PfENT1 WT) (PfENT1 Q135A): abolished the transport activity | Uptake of [3H]-inosine (Percentage of PfENT1 WT) (PfENT1 D287A): abolished the transport activity

Reference: PMC10050424, “Structural basis of the substrate recognition and inhibition mechanism of Plasmodium falciparum nucleoside transporter PfENT1” (Nature Communications, 2023)
